Source: patent US9745319B2, “Irreversible covalent inhibitors of the GTPase K-Ras G12C” (Araxes Pharma LLC, priority 2013, dated 2017)

Biological target: T1, KRAS G12C 1-169, his-tagged protein, GDP-loaded (Homo sapiens, UniProt P01116, G12C)
T1 construct: KRAS G12C 1-169, his-tagged protein, GDP-loaded was diluted to 2 μm in buffer
Test: Biochemical assay: covalent binding to KRAS G12C analyzed by mass spectrometry
Settings: protein diluted to 2 μm, room temperature for 24 hrs, method lists 100, 30 and 10 μM final compound concentration, not stated which applies
Description: Test compounds were prepared as 10 mM stock solutions in DMSO (Fisher cat# BP-231-100). KRAS G12C 1-169, his-tagged protein, GDP-loaded was diluted to 2 μm in buffer (20 mM Hepes, 150 mM NaCl, 1 mM MgCl2). Compounds were tested for activity as follows:
Compounds were diluted to 50× final test concentration in DMSO in 96-well storage plates. Compound stock solutions were vortexed before use and observed carefully for any sign of precipitation. Dilutions were as follow: • For 100 μM final compound concentration, compounds were diluted to 5000 μM (5 μl 10 mM compound stock +5 μl DMSO and mixed well by pipetting. • For 30 μM final compound concentration, compounds were diluted to 1500 μM (3 μl 10 mM compound stock +17 μl DMSO) and mixed well by pipetting. • For 10 μM final compound concentration, compounds were diluted to 500 μM (2 μl 10 mM compound stock +38 μl DMSO) and mixed well by pipetting. 49 μl of the stock protein solution was added to each well of a 96-well PCR plate (Fisher cat#1423027). 1 μl of the diluted 50× compounds were added to appropriate wells in the PCR plate using 12-channel pipettor. Reactions were mixed carefully and thoroughly by pipetting up/down with a 200 μl multi-channel pipettor. The plate was sealed well with aluminum plate seal, and stored in drawer at room temperature for 24 hrs. 5 μl of 2% formic acid (Fisher cat# A117) in DI H2O was then added to each well followed by mixing with a pipette. The plate was then resealed with aluminum seal and stored on dry ice until analyzed as described below.
The above described assays were analyzed by mass spectrometry according to the following procedure:
The MS instrument is set to positive polarity, 2 GHz resolution, and low mass (1700) mode and allowed to equilibrate for 30 minutes. The instrument is then calibrated, switched to acquisition mode and the appropriate method loaded.
After another 30 minute equilibration time, a blank batch (i.e., buffer) is run to ensure equipment is operating properly. The samples are thawed at 37° C. for 10 minutes, briefly centrifuged, and transfer to the bench top. Wells A1 and H12 are spiked with 1 uL 500 uM internal standard peptide, and the plates centrifuged at 2000×g for 5 minutes. The method is then run and masses of each individual well recorded.
The masses (for which integration data is desired) for each well are pasted into the platemap and exported from the analysis. Masses for the internal standards are exported as well. The data at 50 ppm is extracted for the +19 charge state, and identity of well A1 is assigned using the internal standard spike and integrated. Peak data is exported as a TOF list and the above steps are repeated individually, for the +20, 21, 22, 23, 24, and 25 charge states.

In the case of `C=CC(=O)NCC1C[C@@H]2O[C@H](CO)[C@@H](OCc3ccccc3)[C@@H]2O1` (some centres unmarked) [Compound I-1], the Binding % is reported as “+ (+ indicates binding activity from 0.5% to 5%)”.

For `C=CC(=O)NC[C@@H]1C[C@@H]2O[C@H](CO)[C@@H](OCc3ccccc3)[C@@H]2O1` [Compound I-2], the Binding % was “+ (+ indicates binding activity from 0.5% to 5%)”.

For `C=CC(=O)NC[C@H]1C[C@@H]2O[C@H](COCc3ccccc3)[C@@H](OCc3ccccc3)[C@@H]2O1` [Compound I-3], the Binding % was “+ (+ indicates binding activity from 0.5% to 5%)”.

`C=CC(=O)NC[C@@H]1C[C@@H]2O[C@H](COCc3ccccc3)[C@@H](OCc3ccccc3)[C@@H]2O1` [Compound I-4] was tested, and the Binding % was “+ (+ indicates binding activity from 0.5% to 5%)”.

For `C=CS(=O)(=O)NC[C@@H]1C[C@@H]2O[C@H](COCc3ccccc3)[C@@H](OCc3ccccc3)[C@@H]2O1` [Compound I-5], the Binding % was “+++ (+++ indicates binding activity from greater than 10% to 15%)”.

With `C=CS(=O)(=O)NC[C@H]1C[C@@H]2O[C@H](COCc3ccccc3)[C@@H](OCc3ccccc3)[C@@H]2O1` [Compound I-6] the Binding % was “+++ (+++ indicates binding activity from greater than 10% to 15%)”.

`C=CS(=O)(=O)NC[C@H]1C[C@@H]2O[C@H](CO)[C@@H](OCc3ccccc3)[C@@H]2O1` [Compound I-7] was tested, and the Binding % was “++ (++ indicates binding activity from greater than 5% to 10%)”.

In the case of `C=Cc1ccc(S(=O)(=O)NC[C@H]2C[C@@H]3O[C@H](CO)[C@@H](OCc4ccccc4)[C@@H]3O2)cc1` [Compound I-9], the Binding % is reported as “+++ (+++ indicates binding activity from greater than 10% to 15%)”.

For `C=Cc1ccc(S(=O)(=O)NC[C@H]2C[C@@H]3O[C@H](COCc4ccccc4)[C@@H](OCc4ccccc4)[C@@H]3O2)cc1` [Compound I-10], the Binding % was “++++ (++++ indicates binding activity from greater than 15%)”.

For `C=Cc1cccc(S(=O)(=O)NC[C@H]2C[C@@H]3O[C@H](COCc4ccccc4)[C@@H](OCc4ccccc4)[C@@H]3O2)c1` [Compound I-11], the Binding % was “++ (++ indicates binding activity from greater than 5% to 10%)”.

With `C=Cc1ccccc1S(=O)(=O)NC[C@H]1C[C@@H]2O[C@H](COCc3ccccc3)[C@@H](OCc3ccccc3)[C@@H]2O1` [Compound I-12] the Binding % was “+++ (+++ indicates binding activity from greater than 10% to 15%)”.

`C=Cc1cccc(S(=O)(=O)NC[C@@H]2C[C@@H]3O[C@H](COCc4ccccc4)[C@@H](OCc4ccccc4)[C@@H]3O2)c1` [Compound I-13] was tested, and the Binding % was “++++ (++++ indicates binding activity from greater than 15%)”.

`C=Cc1ccc(S(=O)(=O)NC[C@@H]2C[C@@H]3O[C@H](COCc4ccccc4)[C@@H](OCc4ccccc4)[C@@H]3O2)cc1` [Compound I-14] was tested, and the Binding % was “+++ (+++ indicates binding activity from greater than 10% to 15%)”.

In the case of `C=Cc1ccccc1S(=O)(=O)NC[C@@H]1C[C@@H]2O[C@H](COCc3ccccc3)[C@@H](OCc3ccccc3)[C@@H]2O1` [Compound I-15], the Binding % is reported as “+++ (+++ indicates binding activity from greater than 10% to 15%)”.

In the case of `C=Cc1cccc(S(=O)(=O)NC[C@H]2C[C@@H]3O[C@H](CO)[C@@H](OCc4ccccc4)[C@@H]3O2)c1` [Compound I-16], the Binding % is reported as “++ (++ indicates binding activity from greater than 5% to 10%)”.

For `C=Cc1ccccc1S(=O)(=O)NC[C@@H]1C[C@@H]2O[C@H](CO)[C@@H](OCc3ccccc3)[C@@H]2O1` [Compound I-17], the Binding % was “++++ (++++ indicates binding activity from greater than 15%)”.

`C=Cc1ccccc1S(=O)(=O)NC[C@H]1C[C@@H]2O[C@H](CO)[C@@H](OCc3ccccc3)[C@@H]2O1` [Compound I-18] was tested, and the Binding % was “+++ (+++ indicates binding activity from greater than 10% to 15%)”.

With `C=Cc1ccc(S(=O)(=O)NC[C@H]2C[C@@H]3O[C@H](CO)[C@@H](OCc4ccccc4)[C@@H]3O2)cc1` [Compound I-19] the Binding % was “++ (++ indicates binding activity from greater than 5% to 10%)”.

In the case of `C=Cc1cccc(S(=O)(=O)NC[C@@H]2C[C@@H]3O[C@H](CO)[C@@H](OCc4ccccc4)[C@@H]3O2)c1` [Compound I-20], the Binding % is reported as “+++ (+++ indicates binding activity from greater than 10% to 15%)”.

For `C=CS(=O)(=O)NCCOc1ccc2ccccc2c1` [II-1], the Binding % was “+++ (+++ indicates binding activity from greater than 10% to 15%)”.

With `C=CS(=O)(=O)NCCOc1cccc2ccccc12` [II-2] the Binding % was “+++ (+++ indicates binding activity from greater than 10% to 15%)”.

For `C=CS(=O)(=O)NCCNc1cccc2ccccc12` [II-3], the Binding % was “+++ (+++ indicates binding activity from greater than 10% to 15%)”.

`C=CS(=O)(=O)NCCNc1ccc2ccccc2c1` [II-4] was tested, and the Binding % was “++ (++ indicates binding activity from greater than 5% to 10%)”.

For `C=Cc1ccc(S(=O)(=O)NCCNc2ccc3ccccc3c2)cc1` [II-5], the Binding % was “++ (++ indicates binding activity from greater than 5% to 10%)”.

In the case of `C=Cc1ccc(S(=O)(=O)NCCOc2ccc3ccccc3c2)cc1` [II-6], the Binding % is reported as “+++ (+++ indicates binding activity from greater than 10% to 15%)”.

With `C=Cc1cccc(S(=O)(=O)NCCOc2cccc3ccccc23)c1` [II-7] the Binding % was “++ (++ indicates binding activity from greater than 5% to 10%)”.

In the case of `C=Cc1cccc(S(=O)(=O)NCCOc2ccc3ccccc3c2)c1` [II-8], the Binding % is reported as “+++ (+++ indicates binding activity from greater than 10% to 15%)”.

For `C=Cc1ccccc1S(=O)(=O)NCCOc1ccc2ccccc2c1` [II-9], the Binding % was “++ (++ indicates binding activity from greater than 5% to 10%)”.

For `C=Cc1ccc(S(=O)(=O)NCCNc2cccc3ccccc23)cc1` [II-10], the Binding % was “+++ (+++ indicates binding activity from greater than 10% to 15%)”.

`C=Cc1ccccc1S(=O)(=O)NCCNc1cccc2ccccc12` [II-11] was tested, and the Binding % was “++++ (++++ indicates binding activity from greater than 15%)”.

`C=Cc1ccccc1S(=O)(=O)NCCOc1cccc2ccccc12` [II-12] was tested, and the Binding % was “+++ (+++ indicates binding activity from greater than 10% to 15%)”.

For `C=Cc1ccccc1S(=O)(=O)NCCNc1ccc2ccccc2c1` [II-13], the Binding % was “+++ (+++ indicates binding activity from greater than 10% to 15%)”.
